Laboratory results taken from the NIST ThermoML archive (doi:10.1016/j.fluid.2010.03.004).
Numbers after ± are expanded uncertainties.

Test: xn = mol fraction of the nth substance listed
Conditions: Liquid, Vibrating tube method

CC(C)O [propan-2-ol] + O=C=O
mass density (313.22 K, x2 = 0.1267): 783.1 ± 0.4 kg/m3 | mass density (313.22 K, x2 = 0.2066): 789.6 ± 0.5 kg/m3 | mass density (313.22 K, x2 = 0.3029): 799.3 ± 0.5 kg/m3 | mass density (313.22 K, x2 = 0.3845): 803.6 ± 0.5 kg/m3 | mass density (313.22 K, x2 = 0.4501): 806.7 ± 0.5 kg/m3 | mass density (313.22 K, x2 = 0.554): 805.4 ± 0.4 kg/m3 | mass density (313.22 K, x2 = 0.6472): 794.9 ± 0.5 kg/m3 | mass density (313.22 K, x2 = 0.7539): 783.1 ± 0.6 kg/m3 | mass density (313.22 K, x2 = 0.902): 703.7 ± 0.7 kg/m3 | mass density (333.03 K, x2 = 0.137): 761 ± 0.4 kg/m3 | mass density (333.03 K, x2 = 0.2077): 762.7 ± 0.4 kg/m3 | mass density (333.03 K, x2 = 0.3001): 765 ± 0.4 kg/m3 | mass density (333.03 K, x2 = 0.4023): 767.5 ± 0.4 kg/m3 | mass density (333.03 K, x2 = 0.4645): 768.5 ± 0.4 kg/m3 | mass density (333.03 K, x2 = 0.6377): 770.7 ± 0.5 kg/m3 | mass density (333.03 K, x2 = 0.7582): 771.4 ± 0.6 kg/m3 | mass density (333.03 K, x2 = 0.8297): 771.4 ± 1.4 kg/m3 | mass density (348.25 K, x2 = 0.0736): 741.2 ± 0.8 kg/m3 | mass density (348.25 K, x2 = 0.1432): 743.9 ± 0.5 kg/m3 | mass density (348.25 K, x2 = 0.2469): 746.5 ± 0.4 kg/m3 | mass density (348.25 K, x2 = 0.3234): 748.6 ± 0.4 kg/m3 | mass density (348.25 K, x2 = 0.4042): 750.9 ± 0.4 kg/m3 | mass density (348.25 K, x2 = 0.5132): 752.9 ± 0.5 kg/m3 | mass density (348.25 K, x2 = 0.5658): 753.6 ± 0.5 kg/m3 | mass density (348.25 K, x2 = 0.7177): 745.3 ± 2.9 kg/m3 | mass density (348.25 K, x2 = 0.755): 646.5 ± 1.8 kg/m3 | mass density (348.25 K, x2 = 0.8241): 568 ± 1.8 kg/m3 | mass density (362.92 K, x2 = 0.1016): 641.7 ± 1.2 kg/m3 | mass density (362.92 K, x2 = 0.1668): 690.6 ± 0.9 kg/m3 | mass density (362.92 K, x2 = 0.2312): 726.4 ± 0.5 kg/m3 | mass density (362.92 K, x2 = 0.3079): 728.3 ± 0.4 kg/m3 | mass density (362.92 K, x2 = 0.3719): 728.7 ± 0.5 kg/m3 | mass density (362.92 K, x2 = 0.4681): 726.5 ± 0.5 kg/m3 | mass density (362.92 K, x2 = 0.5653): 704.5 ± 0.7 kg/m3 | mass density (362.92 K, x2 = 0.6285): 671.6 ± 0.9 kg/m3 | mass density (362.92 K, x2 = 0.7165): 590.4 ± 1.5 kg/m3

CCCO [propan-1-ol] + O=C=O
mass density (313.24 K, x2 = 0.202): 807 ± 0.4 kg/m3 | mass density (313.24 K, x2 = 0.2572): 812.6 ± 0.4 kg/m3 | mass density (313.24 K, x2 = 0.3141): 817.6 ± 0.4 kg/m3 | mass density (313.24 K, x2 = 0.4054): 823.3 ± 0.4 kg/m3 | mass density (313.24 K, x2 = 0.4405): 824.4 ± 0.4 kg/m3 | mass density (313.24 K, x2 = 0.5256): 826.3 ± 0.4 kg/m3 | mass density (313.24 K, x2 = 0.5773): 825.7 ± 0.4 kg/m3 | mass density (313.24 K, x2 = 0.6774): 822 ± 0.5 kg/m3 | mass density (313.24 K, x2 = 0.7843): 786.8 ± 0.4 kg/m3 | mass density (363.17 K, x2 = 0.1483): 752 ± 0.4 kg/m3 | mass density (363.17 K, x2 = 0.2294): 754.9 ± 0.4 kg/m3 | mass density (363.17 K, x2 = 0.3137): 754.8 ± 0.4 kg/m3 | mass density (363.17 K, x2 = 0.4007): 753.6 ± 0.4 kg/m3 | mass density (363.17 K, x2 = 0.4863): 749.7 ± 0.5 kg/m3 | mass density (363.17 K, x2 = 0.6808): 680.6 ± 0.7 kg/m3 | mass density (363.17 K, x2 = 0.7308): 638.5 ± 1.1 kg/m3
